# Assay results as given in PMC6920997, “Total Phenolic and Flavonoid Content and Biological Activities of Extracts and Isolated Compounds of Cytisus villosus Pourr” (Biomolecules, 2019).
# Like-named read-outs stand apart in the source and are kept apart here.
# Key:
# [1] = test system: L. donovani axenic amastigotes; experiment: Antileishmanial Alamar Blue assay, axenic amastigotes; type: cell-based; settings: Leishmania donovani; for IC50: read-out: L. donovani Amastigote IC50; for IC90: read-out: L. donovani Amastigote IC90
# Text: (§1) The in vitro antileishmanial and antitrypanosomal assays were done on cell cultures of L. donovani promastigotes, axenic amastigotes, THP1-amastigotes, and Trypanosoma brucei trypomastigotes by Alamar Blue assays. The conditions for seeding the THP1 cells, exposure to the test samples, and evaluation of cytotoxicity were the same as described in parasite-rescue and transformation assay. IC50 and IC90 values were computed from the dose response curves using XLfit software (XLfit 5.3.1, IDBS analytical, Boston MA, USA). DFMO (difluoromethylornithine) was used as the positive control. The antiprotozoal activity of C. villosus extracts and isolated compounds were evaluated in vitro against L. donovani promastigotes, axenic amastigotes, and intracellular amastigotes in THP1 cells. The extracts and some isolated compounds were also evaluated against T. brucei trypomastigote forms. All the extracts and compounds were simultaneously tested against THP1 cell for determination of general cytotoxicity. The extracts and isolated compounds were also evaluated for their antimalarial activity against chloroquine-sensitive (D6, Sierra Leone) and chloroquine-resistant strains (W2, Indochina) strains of Plasmodium falciparum. Furthermore, they were tested for cytotoxicity against the Vero cell line.
# [2] = test system: L. donovani intracellular amastigotes in THP1 cells; experiment: Antileishmanial assay, intracellular amastigotes in THP1 cells; type: cell-based; settings: Leishmania donovani; for IC50: THP-1, read-out: L. donovani Amastigote/THP1 IC50; for IC90: THP-1, read-out: L. donovani Amastigote/THP1 IC90
# Text: as §1
# [3] = test system: methicillin-resistant S. aureus (MRSA); experiment: Antibacterial assay MRSA; type: cell-based; settings: Staphylococcus aureus; for inhibition at 50 µg/mL: Concentration: 50 μg/mL, <50 considered inactive, read-out: % Growth Inhibition MRSA
# Experimental: (§2) Extracts and pure compounds were tested for their antimicrobial activity against Staphylococcus aureus, methicillin-resistant S. aureus (MRSA), Escherichia coli, Pseudomonas aeruginosa, and Mycobacterium intracellulare. The antifungal activities were evaluated against a panel of pathogenic fungi, including Candida albicans, C. glabrata, C. krusei, Aspergillus fumigatus, and Cryptococcus neoformans, associated with opportunistic infections.
# Candida albicans = experiment: Antifungal assay C. albicans; type: cell-based; settings: for inhibition at 50 µg/mL: Concentration: 50 μg/mL, <50 considered inactive, read-out: % Growth Inhibition C. albicans; for IC50: pure compounds
# Experimental: as §2
# [4] = test system: L. donovani promastigotes; experiment: Antileishmanial Alamar Blue assay, promastigotes; type: cell-based; settings: Leishmania donovani; for IC50: read-out: L. donovani Promastigote IC50; for IC90: read-out: L. donovani Promastigote IC90
# Text: as §1
# THP1 cells = experiment: THP1 cytotoxicity; type: cell-based
# Text: as §1
# THP1 cytotoxicity = type: cell-based; settings: human
# Text: as §1
# Aspergillus fumigatus = experiment: Antifungal assay A. fumigatus; type: cell-based
# Experimental: as §2
# Pseudomonas aeruginosa = experiment: Antibacterial assay P. aeruginosa; type: cell-based; settings: for inhibition at 50 µg/mL: Concentration: 50 μg/mL, <50 considered inactive, read-out: % Growth Inhibition P. aeruginosa; for IC50: pure compounds
# Experimental: as §2
# Escherichia coli = experiment: Antibacterial assay E. coli; type: cell-based; settings: for inhibition at 50 µg/mL: Concentration: 50 μg/mL, <50 considered inactive, read-out: % Growth Inhibition E. coli; for IC50: pure compounds
# Experimental: as §2
# Cryptococcus neoformans = experiment: Antifungal assay C. neoformans; type: cell-based; settings: for inhibition at 50 µg/mL: Concentration: 50 μg/mL, <50 considered inactive, read-out: % Growth Inhibition C. neoformans; for IC50: pure compounds
# Experimental: as §2
# [5] = DPPH radical scavenging assay; settings: mean ± SD of three measurements
# Experimental: The antioxidant activity of the extracts and pure isolated compounds was determined by applying the 2,2-diphenyl-1-picrylhydrazyl (DPPH) radical scavenging method.
# P. falciparum (W2 Clone) = experiment: Antimalarial assay, chloroquine-resistant W2 clone; type: cell-based, Plasmodium falciparum; settings: for SI (second SI column of Table 7, presumably W2): selectivity index = IC50 for cytotoxicity/IC50 for antimalarial activity
# Text: as §1
# P. falciparum (D6 Clone) = experiment: Antimalarial assay, chloroquine-sensitive D6 clone; type: cell-based, Plasmodium falciparum; settings: for SI (first SI column of Table 7, presumably D6): selectivity index = IC50 for cytotoxicity/IC50 for antimalarial activity
# Text: as §1
# [6] = Cytotoxicity against Vero cell line (antimalarial counterscreen); type: cell-based; settings: African green monkey, column head does not name the cells, read-out: IC50 (third IC50 column of Table 7, presumably Vero cytotoxicity)
# Text: as §1
# iNOS = experiment: Inhibition of iNOS (intracellular NO production) in RAW 264.7 macrophages; type: cell-based; settings: Mus musculus, RAW264.7; RAW 264.7 cells; NA = no activity at 25 µg/mL (pure compounds) or 100 µg/mL (extracts)
# Experimental: The extracts and isolated compounds of C. villosus were evaluated in terms of their interaction with cellular targets related to inflammation and metabolic disorders, such as iNOS and NF-κB. The inhibition of intracellular NO production as a result of iNOS activity was assayed in mouse macrophages (RAW 264.7cells). Cytotoxicity of test samples to macrophages was also determined in parallel to check if the inhibition of iNOS was due to cytotoxic effects.
# NF-κB = experiment: Reporter gene assay for the inhibition of NF-κB; type: cell-based; settings: PMA-treated cells, luciferase reporter; NA = no activity at 25 µg/mL (pure compounds) or 100 µg/mL (extracts); read-out: Inhibition of NF-kB IC50
# Experimental: Reporter gene assay for the inhibition of NF-κB Activity was performed as described earlier. In brief, cells transfected with NF-κB luciferase plasmid construct were plated in 96-well plates at a density of 1.25 × 10^5 cells/well. After 24 h, cells were treated with the test compounds and, after incubating for 30 min, phorbol 12-myristate 13-acetate (PMA) (Sigma-Aldrich, Burlington MA, USA) (70 ng/mL) was added and further incubated for 6−8 h. Luciferase activity was measured as described above. Percent decrease in luciferase activity was calculated relative to the vehicle control. Parthenolide (Sigma-Aldrich, Burlington MA, USA) was used as a positive control.
# Staphylococcus aureus = experiment: Antibacterial assay S. aureus; type: cell-based; settings: pure compounds
# Experimental: as §2
# [7] = test system: Trypanosoma brucei trypomastigotes; experiment: Antitrypanosomal Alamar Blue assay; type: cell-based; settings: for IC50 / IC90: Table 4; for IC50: read-out: T. brucei IC50; for IC90: read-out: T. brucei IC90
# Text: as §1
# HepG2 cells = experiment: Cellular antioxidant activity (CAA) assay; type: cell-based
# Experimental: The cellular antioxidant activity was measured in HepG2 cells as described by Wolfe and Rui. The antioxidant activity was expressed in terms of CAA units. The area under the curve (AUC) of fluorescence versus time plot was used to calculate CAA units as described by Wolfe and Rui.
# [8] = THP1 cells, read-out: THP1 Cytotoxicity IC50
smiles,measurement,setting,value
"C[C@@H]1[C@H](O)[C@@H](C)/C=C/C=C/C=C/C=C/C=C/C=C/C=C/[C@H](O[C@@H]2O[C@H](C)[C@@H](O)[C@H](N)[C@@H]2O)C[C@@H]2O[C@](O)(C[C@@H](O)C[C@@H](O)[C@H](O)CC[C@@H](O)C[C@@H](O)CC(=O)O[C@H]1C)C[C@H](O)[C@H]2C(=O)O [Amphotericin B, reference compound]",IC50,[1],0.211 µM
same,IC90,[1],0.374 µM
same,IC50,[2],0.188 µM
same,IC90,[2],0.421 µM
same,inhibition at 50 µg/mL,[3],1%
same,inhibition at 50 µg/mL,Candida albicans,100%
same,IC50,[4],0.136 µM
same,IC90,[4],0.215 µM
same,THP1 Cytotoxicity C90,THP1 cells; human,>2 µM
same,IC50,THP1 cytotoxicity,> 2 µM
same,inhibition at 50 µg/mL,"Aspergillus fumigatus; Concentration: 50 μg/mL, <50 considered inactive, read-out: % Growth Inhibition A. fumigatus",93%
same,inhibition at 50 µg/mL,Pseudomonas aeruginosa,0%
same,inhibition at 50 µg/mL,Escherichia coli,0%
same,inhibition at 50 µg/mL,Cryptococcus neoformans,100%
O=C1O[C@H]([C@@H](O)CO)C(O)=C1O [Ascorbic acid],DPPH Scavenging IC50,[5],43 ± 6 mg/L
"O=C(O)c1cn(C2CC2)c2cc(N3CCNCC3)c(F)cc2c1=O [CIPRO, Ciprofloxacin, reference compound]",inhibition at 50 µg/mL,[3],0%
same,inhibition at 50 µg/mL,Candida albicans,0%
same,inhibition at 50 µg/mL,Pseudomonas aeruginosa,96%
same,inhibition at 50 µg/mL,Escherichia coli,100%
same,inhibition at 50 µg/mL,Cryptococcus neoformans,0%
"CCN(CC)CCCC(C)Nc1ccnc2cc(Cl)ccc12 (centres unmarked) [CQ, Chloroquine, reference compound]",IC50,"P. falciparum (W2 Clone); Plasmodium falciparum, W2, read-out: IC50 (second IC50 column of Table 7, presumably P. falciparum W2)",0.116 mg/L
same,"SI (second SI column of Table 7, presumably W2)",P. falciparum (W2 Clone),>2.1
same,inhibition at 0.0793 µg/mL,"P. falciparum (D6 Clone); Plasmodium falciparum, D6, read-out: %Inhibition P. falciparum (D6 Clone)",100%
same,IC50,"P. falciparum (D6 Clone); Plasmodium falciparum, read-out: IC50",< 0.026 mg/L
same,"SI (first SI column of Table 7, presumably D6)",P. falciparum (D6 Clone),>9
same,IC50,[6],> 0.238 mg/L
"O=c1c(-c2ccc(O)cc2)coc2cc(O)cc(O)c12 [Compound 1, genistein]",IC50,iNOS,9 mg/L
same,IC50,NF-κB,28 mg/L
"O=c1cc(-c2ccccc2)oc2cc(O[C@@H]3O[C@H](CO)[C@@H](O)[C@H](O)[C@H]3O)cc(O)c12 [Compound 3, chrysin-7-O-β-D-glucopyranoside]",IC50,[1],> 10 µM
same,IC90,[1],> 10 µM
same,IC50,[2],> 10 µM
same,IC90,[2],> 10 µM
same,IC50,Staphylococcus aureus,> 20 mg/L
same,"SI (second SI column of Table 7, presumably W2)",P. falciparum (W2 Clone),1
same,IC50,iNOS,20 mg/L
same,IC50,Candida albicans,> 20 mg/L
same,IC50,[4],> 10 µM
same,IC90,[4],> 10 µM
same,THP1 Cytotoxicity C90,THP1 cells,>10 µM
same,IC50,THP1 cytotoxicity; [8],> 10 µM
same,IC50,[7]; Trypanosoma brucei,> 10 µM
same,IC90,[7]; Trypanosoma brucei,> 10 µM
same,"SI (first SI column of Table 7, presumably D6)",P. falciparum (D6 Clone),1
same,IC50,[6]; Vero cells,> 4.76 mg/L
same,IC50,Pseudomonas aeruginosa,> 20 mg/L
same,IC50,Escherichia coli,> 20 mg/L
same,IC50,Cryptococcus neoformans,> 20 mg/L
"C[C@@H]1O[C@@H](O[C@@H]2[C@@H](O)[C@H](O)[C@@H](CO)O[C@H]2c2c(O)cc(O)c3c(=O)cc(-c4ccc(O)c(O)c4)oc23)[C@H](O)[C@H](O)[C@H]1O [Compound 4, 2″-O-α-L-rhamnosylorientin]",IC50,[1],> 10 µM
same,IC90,[1],> 10 µM
same,IC50,[2],> 10 µM
same,IC90,[2],> 10 µM
same,IC50,Staphylococcus aureus,> 20 mg/L
same,IC50,[3]; pure compounds,> 20 mg/L
same,IC50,Candida albicans,> 20 mg/L
same,IC50,[4],> 10 µM
same,IC90,[4],> 10 µM
same,THP1 Cytotoxicity C90,THP1 cells,>10 µM
same,IC50,THP1 cytotoxicity; [8],> 10 µM
same,IC50,[7]; Trypanosoma brucei,> 10 µM
same,IC90,[7]; Trypanosoma brucei,> 10 µM
same,T. brucei IC50,[7]; as given in the text,didn’t show an effect
same,IC50,Aspergillus fumigatus; pure compounds,> 20 mg/L
same,IC50,Pseudomonas aeruginosa,> 20 mg/L
same,IC50,Escherichia coli,> 20 mg/L
same,% Decrease in Oxidative Stress,HepG2 cells; concentration 250 µg/mL,28%
same,% Decrease in Oxidative Stress,HepG2 cells; concentration 500 µg/mL,29%
same,% Decrease in Oxidative Stress,HepG2 cells; concentration 1000 µg/mL,36%
same,IC50,Cryptococcus neoformans,> 20 mg/L
"NCCCC(N)(C(=O)O)C(F)F (centres unmarked) [DFMO, difluoromethylornithine, reference compound]",IC50,[7],3.63 µM
same,IC90,[7],8.8 µM
"C=C1C(=O)O[C@H]2[C@H]1CC/C(C)=C/CC[C@@]1(C)O[C@@H]21 [Parthenolide, reference compound]",IC50,iNOS,0.2 mg/L
same,IC50,NF-κB,1.63 mg/L
"N=C(N)c1ccc(OCCCCCOc2ccc(C(=N)N)cc2)cc1 [Pentamidine, reference compound]",IC50,[1],9.58 µM
same,IC90,[1],> 10 µM
same,IC50,[2],1.16 µM
same,IC90,[2],5.59 µM
same,IC50,[4],1.48 µM
same,IC90,[4],2.38 µM
same,THP1 Cytotoxicity C90,THP1 cells; human,>10 µM
same,IC50,THP1 cytotoxicity,> 10 µM
same,IC50,[7]; Trypanosoma brucei,0.001 µM
same,IC90,[7]; Trypanosoma brucei,0.002 µM
"O=c1c(O)c(-c2ccc(O)c(O)c2)oc2cc(O)cc(O)c12 [Quercetin, reference compound]",% Decrease in Oxidative Stress,HepG2 cells; 25 µM,77%
